Assay results as given in patent US20260294769A1, “ASCORBIC ACID DERIVATIVES AND COSMETIC THEREOF” (SEIWA KASEI COMPANY, LIMITED, priority 2023, published 2026).
Where two headings read alike, the source gives them in different places.

Columns and labels:
[1] = Stability Test-2: odor of cream stored at 50° C.; type: physicochemical; details: 10 panelists
From the text: • Evaluation was made by 10 panelists according to the following criteria. • 3: Almost odorless. • 2: There is a slight strange odor. • 1: A strong odor is detected. • Based on the results of the above evaluation, the following classification was made: • ◯: Total score of 10 panelists is 25 or more • Δ: Total score of 10 panelists is 16-24 • x: The total score of 10 panelists is 15 or less
(§1) For each of the samples of Synthesis Examples 9 to 32, (a) and (b) shown in Table 12 were each heated and mixed. After cooling, (c) shown in Table 12 was added to prepare a cream with a pH of 7 or 9. […] The odor and coloration were also evaluated according to the same method and criteria as in Test Example 1. The results regarding the residual rate are shown in Tables 13 and 14, and the results regarding the odor and coloration are shown in Tables 15 and 16.

[2] = Stability Test-2: coloration of cream stored at 50° C.; type: physicochemical; details: 10 panelists
From the text: • Evaluation was made by 10 panelists according to the following criteria. • 3: Almost no change compared to immediately after preparation. • 2: Color changes compared to immediately after preparation. • 1: Strongly colored compared to immediately after preparation. • Based on the results of the above evaluation, the following classification was made:
as §1

[3] = Stability Test-2: residual rate in cream of pH 7 or 9 stored at 50° C.; type: physicochemical
Method: as §1

[4] = tested on: Normal human dermal fibroblasts (NHDF); assay: Hyaluronic acid production promoting effect (ELISA of hyaluronic acid in supernatant); type: cell-based; details: 10 mM or less, 48 hours, control group set to 100%, N=3
Method: Normal human dermal fibroblasts (NHDF) were prepared in D-MEM containing 5% (v/v) fetal bovine serum to a cell density of 2.5×10^4 cells/well, and then pre-incubated on a 96-well plate for 24 hours. After removing the medium, samples prepared in serum-free D-MEM were added to each well and cultured for 48 hours. After the culture was completed, the amount of hyaluronic acid in the supernatant was quantified by ELISA. Measurements were performed in triplicate (N=3).
The amount of hyaluronic acid produced when the sample was measured at a concentration of 10 mM or less was compared with that of the control group, and the results (% values when the control group is set to 100%) are shown in Tables 18 to 20 based on the following criteria.

[5] = Stability Test-1: residual rate of 1% aqueous solutions stored at 50° C. (HPLC); type: physicochemical; details: water, 1% aqueous solution; for remaining at 336 h: after 2 weeks, read-out: Residual Rate; for remaining at 672 h: after 4 weeks
Method: For each of the samples of Synthesis Examples 1 to 6, 1% aqueous solutions were adjusted to pH 3, 5, 7, 8, and 9 with a dilute potassium hydroxide aqueous solution, and then placed in 50 mL screw tubes and sealed. […] Furthermore, the odor and coloration of the samples adjusted to pH 7 were evaluated based on the following methods and criteria, and the results are shown in Table 11.
• ⊚: 80% or more • ◯: 50% or more, less than 80% • Δ: 30% or more, less than 50% • x: Less than 30%

[6] = cream pH 7, 50° C., after 2 weeks, 20160 min
[7] = cream pH 7, 50° C., after 4 weeks, 40320 min
[8] = cream pH 9, 50° C., after 2 weeks, 20160 min
[9] = cream pH 9, 50° C., after 4 weeks, 40320 min

| SMILES | Odor ([1]; after 4 weeks) | Residual Rate [3, 6] | Residual Rate [3, 7] | Residual Rate [3, 8] | Residual Rate [3, 9] | Odor ([1]; after 2 weeks) | Coloration ([2]; after 2 weeks) | Coloration ([2]; after 4 weeks) | Hyaluronic acid production-promoting effect [4] | further results |
| --- | --- | --- | --- | --- | --- | --- | --- | --- | --- | --- |
| CCCCCCCC(=O)OCC(O)C1OC(=O)C2=C1OCCCO2 (stereo not shown) [Synthesis Example 22, 6-O-octanoyl-2,3-O-(1,3-propanediyl) ascorbic acid] | Δ (Total score of 10 panelists is 16-24) | ⊚ (95% or more) | ⊚ (95% or more) | ⊚ (95% or more) | ⊚ (95% or more) | ◯ (Total score of 10 panelists is 25 or more) | ◯ (Total score of 10 panelists is 25 or more) | ◯ (Total score of 10 panelists is 25 or more) | ++ (120%<) | – |
| O=C1OC(C2COC(c3ccccc3)O2)C2=C1OCCCO2 (stereo not shown) [Synthesis Example 38, 5,6-O-(phenylmethylene)-2,3-O-(1,3-propanediyl) ascorbic acid] | – | – | – | – | – | – | – | – | ++ (120%<) | – |
| CCCCCCCCCCCCCCCC(=O)OC[C@H](O)[C@H]1OC(=O)C(OP(=O)(O)O)=C1O [Ascorbyl phosphate 3Na palmitate, reference compound] | – | – | – | – | – | – | – | – | ± (<100%) | – |
| CCCCCCCC(=O)OCC(O)C1OC(=O)C2=C1OCCCCO2 (stereo not shown) [Synthesis Example 11, 6-O-octanoyl-2,3-O-(1,4-butanediyl) ascorbic acid] | Δ (Total score of 10 panelists is 16-24) | ⊚ (95% or more) | ⊚ (95% or more) | ⊚ (95% or more) | ∘ (85% or more, less than 95%) | ◯ (Total score of 10 panelists is 25 or more) | ◯ (Total score of 10 panelists is 25 or more) | ◯ (Total score of 10 panelists is 25 or more) | ++ (120%<) | – |
| CCCCCCCCCCCC(=O)OCC(O)C1OC(=O)C2=C1OCCCO2 (stereo not shown) [Synthesis Example 24, 6-O-lauroyl-2,3-O-(1,3-propanediyl) ascorbic acid] | Δ (Total score of 10 panelists is 16-24) | ⊚ (95% or more) | ⊚ (95% or more) | ⊚ (95% or more) | ⊚ (95% or more) | ◯ (Total score of 10 panelists is 25 or more) | ◯ (Total score of 10 panelists is 25 or more) | ◯ (Total score of 10 panelists is 25 or more) | ++ (120%<) | – |
| CC1(C)OCC(C2OC(=O)C3=C2OCCCO3)O1 (stereo not shown) [Synthesis Example 36, 5,6-O-isopropylidene-2,3-O-(1,3-propanediyl) ascorbic acid] | – | – | – | – | – | – | – | – | ++ (120%<) | – |
| CC1(C)OCC(C2OC(=O)C3=C2OCCCCO3)O1 (stereo not shown) [Synthesis Example 35, 5,6-O-isopropylidene-2,3-O-(1,4-butanediyl) ascorbic acid] | – | – | – | – | – | – | – | – | ++ (120%<) | – |
| CCCC(=O)OCC(O)C1OC(=O)C2=C1OCCCCO2 (stereo not shown) [Synthesis Example 9, 6-O-butanoyl-2,3-O-(1,4-butanediyl) ascorbic acid] | Δ (Total score of 10 panelists is 16-24) | ⊚ (95% or more) | ⊚ (95% or more) | ⊚ (95% or more) | ⊚ (95% or more) | ◯ (Total score of 10 panelists is 25 or more) | ◯ (Total score of 10 panelists is 25 or more) | ◯ (Total score of 10 panelists is 25 or more) | ++ (120%<) | – |
| O=C1O[C@H]([C@@H](O)CO)C(OCC(O)CO)=C1OCC(O)CO (stereo partly shown) [Bisglyceryl ascorbic acid, reference compound] | – | – | – | – | – | – | – | – | – | remaining at 336 h ([5]; pH 3, 50° C.): ≥ 80%; remaining at 672 h ([5]; pH 3, 50° C.): ≥ 80%; remaining at 336 h ([5]; pH 5, 50° C.): ≥ 80%; remaining at 672 h ([5]; pH 5, 50° C.): ≥ 80%; remaining at 336 h ([5]; pH 7, 50° C.): < 30%; remaining at 672 h ([5]; pH 7, 50° C.): < 30%; remaining at 336 h ([5]; pH 8, 50° C.): < 30%; remaining at 672 h ([5]; pH 8, 50° C.): < 30%; remaining at 336 h ([5]; pH 9, 50° C.): < 30%; remaining at 672 h ([5]; pH 9, 50° C.): < 30% |

More lines, main results first:

| Odor ([1]; after 4 weeks) | Residual Rate [3, 6] | Residual Rate [3, 7] | Residual Rate [3, 8] | Residual Rate [3, 9] | SMILES | Odor ([1]; after 2 weeks) | Coloration ([2]; after 2 weeks) | Coloration ([2]; after 4 weeks) | Hyaluronic acid production-promoting effect [4] | further results |
| --- | --- | --- | --- | --- | --- | --- | --- | --- | --- | --- |
| Δ (Total score of 10 panelists is 16-24) | ⊚ (95% or more) | ⊚ (95% or more) | ⊚ (95% or more) | ⊚ (95% or more) | CCCCCCCCCCCCCCCC(=O)OCC(OC(=O)CCC)C1OC(=O)C2=C1OCCCO2 (stereo not shown) [Synthesis Example 30, 5-O-butanoyl-6-O-palmitoyl-2,3-O-(1,3-propanediyl) ascorbic acid] | ◯ (Total score of 10 panelists is 25 or more) | ◯ (Total score of 10 panelists is 25 or more) | ◯ (Total score of 10 panelists is 25 or more) | – | – |
| Δ (Total score of 10 panelists is 16-24) | ⊚ (95% or more) | ⊚ (95% or more) | ⊚ (95% or more) | ⊚ (95% or more) | CCCCCCCCCCCC(=O)OCC(OC(=O)CCCCCCCCCCC)C1OC(=O)C2=C1OCCCO2 (stereo not shown) [Synthesis Example 25, 5,6-O-dilauroyl-2,3-O-(1,3-propanediyl) ascorbic acid] | ◯ (Total score of 10 panelists is 25 or more) | ◯ (Total score of 10 panelists is 25 or more) | Δ (Total score of 10 panelists is 16-24) | ++ (120%<) | – |
| Δ (Total score of 10 panelists is 16-24) | ⊚ (95% or more) | ⊚ (95% or more) | ⊚ (95% or more) | ⊚ (95% or more) | CC(C)CCCCCCCCCCCCCCC(=O)OCC(OC(=O)CCCCCCCCCCCCCCC(C)C)C1OC(=O)C2=C1OCCO2 (stereo not shown) [Synthesis Example 32, 5,6-O-diisostearoyl-2,3-O-(1,2-ethanediyl) ascorbic acid] | ◯ (Total score of 10 panelists is 25 or more) | ◯ (Total score of 10 panelists is 25 or more) | ◯ (Total score of 10 panelists is 25 or more) | – | – |
| Δ (Total score of 10 panelists is 16-24) | ∘ (85% or more, less than 95%) | x (Less than 85%) | ∘ (85% or more, less than 95%) | x (Less than 85%) | CCCCCCCCC(CCCCCC)C(=O)OC[C@H](OC(=O)C(CCCCCC)CCCCCCCC)[C@H]1OC(=O)C(OC(=O)C(CCCCCC)CCCCCCCC)=C1OC(=O)C(CCCCCC)CCCCCCCC (stereo partly shown) [Ascorbyl tetrahexyldecanoate, reference compound] | ◯ (Total score of 10 panelists is 25 or more) | ◯ (Total score of 10 panelists is 25 or more) | Δ (Total score of 10 panelists is 16-24) | – | – |
| Δ (Total score of 10 panelists is 16-24) | ⊚ (95% or more) | ⊚ (95% or more) | ⊚ (95% or more) | ⊚ (95% or more) | CCCCCCCC(=O)OC[C@H](OC(=O)CCC)[C@H]1OC(=O)C2=C1OCCCCO2 [Synthesis Example 19, 5-O-butanoyl-6-O-octanoyl-2,3-O-(1,4-butanediyl) ascorbic acid] | ◯ (Total score of 10 panelists is 25 or more) | ◯ (Total score of 10 panelists is 25 or more) | ◯ (Total score of 10 panelists is 25 or more) | – | – |
